Experimental data: patent US20190209650A1, “METHOD TO IMPROVE THE EFFECTIVENESS OF ANTI-CANCER THERAPIES BY EXPOSING CANCER CELLS TO AN INFLAMMATORY STIMULUS PRIOR TO TREATMENT” (priority 2016, published 2019)

System: SW620 colorectal cancer cell line
Assay: Flow cytometry of EpCAM positive cells and cancer stem cell (CD44+CD133-) subpopulation after incubation with cytokines
Type: cell-based, human
Conditions: for % Gated, R4 (CD44FITC, CD133 PE) / % Total, R4 (CD44FITC, CD133 PE): population R4 & R14 & R2 & R1; for % Gated, R5 (CD44FITC, CD133 PE) / % Total, R5 (CD44FITC, CD133 PE): population R5 & R14 & R2 & R1; for % Gated, R6 (CD44FITC, CD133 PE) / % Total, R6 (CD44FITC, CD133 PE): population R6 & R14 & R2 & R1; for % Gated, R7 Cancer Stem Cell (CSC) (CD44+CD133-) / % Total, R7 Cancer Stem Cell (CSC) (CD44+CD133-): population R7 & R14 & R2 & R1; for % Gated, R8 (CD44FITC, EpCAMefluor710) / % Total, R8 (CD44FITC, EpCAMefluor710): population R8 & R14 & R2 & R1; for % Gated, R9 EpCAM positive Cells (CD44FITC, EpCAMefluor710) / % Total, R9 EpCAM positive Cells (CD44FITC, EpCAMefluor710): population R9 & R14 & R2 & R1; for % Gated, R10 EpCAM positive Cells (CD44FITC, EpCAMefluor710) / % Total, R10 EpCAM positive Cells (CD44FITC, EpCAMefluor710): population R10 & R14 & R2 & R1; for % Gated, R11 (CD44FITC, EpCAMefluor710) / % Total, R11 (CD44FITC, EpCAMefluor710): population R11 & R14 & R2 & R1
Description: This number returned to near baseline 21% at 48 hours. […] This change was transient, occurring within 24 hours and rapidly returning to baseline.
The data from the scatter plots of FIGS. 1A-1H, 2A-2H, and 3A-3H are reproduced below in Tables 1-3.
Based on the above data of potentiating the effectiveness of chemotherapy by exposing cancer cells to specific cytokines such as HGF and or Il-6 within a time limited fashion, the mechanism behind this ability to sensitize cancer cells may not simply be triggering cellular proliferation. Specific cytokine exposures can transiently cause a cancer cell population to differentiate away from a more stem cell enriched, mesenchymal phenotype towards a more differentiated, epithelial cell population more sensitive to the effects of anti-cancer therapies (see Tables 1-3).
In particular, exposure to a control population of SW620 colorectal cancer cell line to HGF at a concentration of 10 ng per ml for 24 hours caused the control putative stem cell population (CD44+/CD133−) to drop from 33% at baseline (see Table 1, R7 region, CD 44 positive/CD133 negative) to 1% (see Table 2, R7, region CD 44 positive/CD133 negative). This drop was transient, as exposure to the same cell line for 48 hours of HGF at 10 ng per ml transitioned the phenotypic distribution back towards a stem cell enriched phenotype with 23% putative stem cells (see Table 3, R7 region, CD 44 positive/CD133 negative).

## IL8: cytokine treatment IL8 in Tables 1-3
0 hour incubation
  % Gated, R4 (CD44FITC, CD133 PE): 48.9%
  % Total, R4 (CD44FITC, CD133 PE): 40.9%
  % Gated, R5 (CD44FITC, CD133 PE): 3.58%
  % Total, R5 (CD44FITC, CD133 PE): 2.99%
  % Gated, R6 (CD44FITC, CD133 PE): 14.3%
  % Total, R6 (CD44FITC, CD133 PE): 12%
  % Gated, R7 Cancer Stem Cell (CSC) (CD44+CD133-): 33.5%
  % Total, R7 Cancer Stem Cell (CSC) (CD44+CD133-): 28%
  % Gated, R8 (CD44FITC, EpCAMefluor710): 3.84%
  % Total, R8 (CD44FITC, EpCAMefluor710): 3.21%
  % Gated, R9 EpCAM positive Cells (CD44FITC, EpCAMefluor710): 55%
  % Total, R9 EpCAM positive Cells (CD44FITC, EpCAMefluor710): 46%
  % Gated, R10 EpCAM positive Cells (CD44FITC, EpCAMefluor710): 38.9%
  % Total, R10 EpCAM positive Cells (CD44FITC, EpCAMefluor710): 32.6%
  % Gated, R11 (CD44FITC, EpCAMefluor710): 1.92%
  % Total, R11 (CD44FITC, EpCAMefluor710): 1.6%
24 h incubation
  % Gated, R4 (CD44FITC, CD133 PE): 36.8%
  % Total, R4 (CD44FITC, CD133 PE): 30%
  % Gated, R5 (CD44FITC, CD133 PE): 7.29%
  % Total, R5 (CD44FITC, CD133 PE): 5.93%
  % Gated, R6 (CD44FITC, CD133 PE): 30.9%
  % Total, R6 (CD44FITC, CD133 PE): 25.2%
  % Gated, R7 Cancer Stem Cell (CSC) (CD44+CD133-): 24.5%
  % Total, R7 Cancer Stem Cell (CSC) (CD44+CD133-): 19.9%
  % Gated, R8 (CD44FITC, EpCAMefluor710): 1.98%
  % Total, R8 (CD44FITC, EpCAMefluor710): 1.61%
  % Gated, R9 EpCAM positive Cells (CD44FITC, EpCAMefluor710): 48.4%
  % Total, R9 EpCAM positive Cells (CD44FITC, EpCAMefluor710): 39.4%
  % Gated, R10 EpCAM positive Cells (CD44FITC, EpCAMefluor710): 50.1%
  % Total, R10 EpCAM positive Cells (CD44FITC, EpCAMefluor710): 40.6%
  % Gated, R11 (CD44FITC, EpCAMefluor710): 0.34%
  % Total, R11 (CD44FITC, EpCAMefluor710): 0.27%
48 h incubation
  % Gated, R4 (CD44FITC, CD133 PE): 38.5%
  % Total, R4 (CD44FITC, CD133 PE): 35.8%
  % Gated, R5 (CD44FITC, CD133 PE): 6.8%
  % Total, R5 (CD44FITC, CD133 PE): 6.32%
  % Gated, R6 (CD44FITC, CD133 PE): 28.5%
  % Total, R6 (CD44FITC, CD133 PE): 26.5%
  % Gated, R7 Cancer Stem Cell (CSC) (CD44+CD133-): 26.8%
  % Total, R7 Cancer Stem Cell (CSC) (CD44+CD133-): 24.9%
  % Gated, R8 (CD44FITC, EpCAMefluor710): 23.1%
  % Total, R8 (CD44FITC, EpCAMefluor710): 21.5%
  % Gated, R9 EpCAM positive Cells (CD44FITC, EpCAMefluor710): 31%
  % Total, R9 EpCAM positive Cells (CD44FITC, EpCAMefluor710): 28.8%
  % Gated, R10 EpCAM positive Cells (CD44FITC, EpCAMefluor710): 25.4%
  % Total, R10 EpCAM positive Cells (CD44FITC, EpCAMefluor710): 23.6%
  % Gated, R11 (CD44FITC, EpCAMefluor710): 21.4%
  % Total, R11 (CD44FITC, EpCAMefluor710): 19.9%
